This test has as its target T1, Purified Lck (Upstate) (Homo sapiens, UniProt P06239).
T1 construct: purchased Upstate
The test is described as follows: Assay for Lck Activity. Type of test: biochemical. Particulars: Src substrate peptide-coated plate ELISA, 0.05 mM ATP, 30° C. for 60 minutes, anti-phosphotyrosine HRP detection. As for the experimental part: The Src substrate peptide (Upstate) was coated onto 96-well Maxisorp plates (Nunc). Plates were sealed and incubated at 4° C., for 16 hours, washed three times with TBST (20 mM Tris-HCl pH 7.5, 150 mM NaCl and 0.1% Tween-20). The plates were blocked with 0.1% BSA and washed three times with TBST. Purified Lck (Upstate) was incubated in 100 mM Tris-HCl pH 7.5, 125 mM MgCl2, 25 mM MnCl2, 2 mM EGTA, 0.25 mM Sodium Vanadate, 2 mM DTT, 0.05 mM ATP with or without inhibitors at 30° C. for 60 minutes and washed with TBST three times. For quantification of phosphorylated tyrosines, plates were incubated with anti-phosphotyrosine, HRP conjugate (4G10, Upstate) for 1 hour at ambient temperature and washed three times with TBST. Detection was carried out using a color reagent, TMB (KPL). Ten minute after TMB addition the OD at 450 nm was measured.
In general terms: ELISA stands for enzyme-linked immunosorbent assay.
T1 sequence (P06239 whole entry, species assumed): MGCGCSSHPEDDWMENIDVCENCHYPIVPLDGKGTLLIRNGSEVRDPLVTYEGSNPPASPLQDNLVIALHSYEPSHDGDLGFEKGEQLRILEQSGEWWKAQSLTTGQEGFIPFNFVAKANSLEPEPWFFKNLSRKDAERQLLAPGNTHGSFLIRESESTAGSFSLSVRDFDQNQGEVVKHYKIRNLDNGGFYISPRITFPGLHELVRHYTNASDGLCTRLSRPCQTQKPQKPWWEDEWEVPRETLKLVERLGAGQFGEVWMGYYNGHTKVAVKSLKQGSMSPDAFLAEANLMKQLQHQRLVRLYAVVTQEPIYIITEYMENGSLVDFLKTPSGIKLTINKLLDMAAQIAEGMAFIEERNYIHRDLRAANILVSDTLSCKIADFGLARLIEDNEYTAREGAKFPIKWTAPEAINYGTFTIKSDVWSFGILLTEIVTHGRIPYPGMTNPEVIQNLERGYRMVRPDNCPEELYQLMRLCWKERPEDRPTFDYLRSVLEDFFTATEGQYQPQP
By IC50 is commonly meant the concentration that gives 50% inhibition. Low readings indicate greater potency in that assay, high ones weaker potency in that assay. On to `c1cc(Nc2ccc3ncc(-c4ccncc4)n3n2)ccn1` [Example 106, N,3-Di-4-pyridinylimidazo[1,2-b]pyridazin-6-amine], for which 410 nM corresponded to half-maximal inhibition (IC50).
With `Oc1c(Cl)cc(-c2cnc3ccc(N[C@H]4CC[C@H](O)CC4)nn23)cc1Cl` [Example 127, 2,6-dichloro-4-{6-[(trans-4-hydroxycyclohexyl)amino]imidazo[1,2-b]pyridazin-3-yl}phenol], the IC50 was found to be 81 nM.
As for `c1ccc(Nc2ccc3ncc(-c4ccncc4)n3n2)cc1` [Example 47, N-Phenyl-3-(4-pyridinyl)imidazo[1,2-b]pyridazin-6-amine], the figure is 350 nM; as for `c1cc(-c2cnc3ccc(NC45CC6CC(CC(C6)C4)C5)nn23)ccn1` [Example 249, N-1-Adamantyl-3-(4-pyridinyl)imidazo[1,2-b]pyridazin-6-amine], 320 nM; as for `c1ccc(CNc2ccc3ncc(-c4ccncc4)n3n2)cc1` [Example 102, N-Benzyl-3-(4-pyridinyl)imidazo[1,2-b]pyridazin-6-amine], 310 nM.
In turn, `O[C@H]1CC[C@H](Nc2ccc3ncc(-c4ccnc(F)c4)n3n2)CC1` [Example 153, trans-4-{[3-(2-Fluoro-4-pyridinyl)imidazo[1,2-b]pyridazin-6-yl]amino}cyclohexanol] registered a half-inhibitory concentration (IC50) of 97 nM.
Take `c1cc(-c2cnc3ccc(NC4CCOCC4)nn23)ccn1` [Example 16, 3-(4-pyridinyl)-N-(tetrahydro-2H-pyran-4-yl)imidazo[1,2-b]pyridazin-6-amine]: the 50% inhibitory concentration (IC50) is 460 nM.
In the case of `c1cc(-c2cnc3ccc(NC4CCCCC4)nn23)ccn1` [Example 44, N-Cyclohexyl-3-(4-pyridinyl)imidazo[1,2-b]pyridazin-6-amine], the IC50 amounted to 380 nM.

The values are drawn from patent publication US20100216798A1, “FUSED HETEROCYCLES AS LCK INHIBITORS” (ASTELLAS PHARMA INC, priority 2005, published 2010).
